“And” between values parts separate entries of the source, which are not always exact repeats. Identical values can stand only once.
molecular target: Nonstructural protein 3 (Zika virus, UniProt A0A024AXB9); assay: Functional biochemical assay to identify treatments for viral infectious disease that targets Zika NS2B-NS3 protease. Utilizing a direct enzyme activity measurement method, reading the fluorescence intensity is used to characterize the relative potency of inhibitors as IC50.; design: species or system PRVABC59
Sequence (A0A024AXB9 whole entry): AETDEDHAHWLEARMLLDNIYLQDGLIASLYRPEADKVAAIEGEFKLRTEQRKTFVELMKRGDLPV

Structure (SMILES)	IC50
C[C@@H](N)c1ccc(NC(=O)c2cc(Cl)cc3[nH]ncc23)cc1	2.91 µM
NCc1ccc(NC(=O)c2cc(Cl)cc3[nH]ncc23)cc1F	4.94 µM
CN(C(=O)c1cc(Cl)cc2[nH]ncc12)c1ccc2c(c1)CNC2	80 µM
O=c1[nH]c2cc(Cl)ccc2n1Cc1ccc(-c2nn[nH]n2)cc1	> 99.5 µM
C[C@H]1NCCc2c(-c3ccc4[nH]c(C(=O)O)cc4c3)cc(F)cc21	> 99.5 µM
CCOC(=O)N1CCC[C@H]1c1cccc(-c2ccc3[nH]c(C(=O)O)cc3c2)c1	> 99.5 µM
NS(=O)(=O)c1ccc(C(F)F)cc1-c1ccc2[nH]c(C(=O)O)cc2c1	> 99.5 µM
O=C(Nc1cc(Cl)cc(-c2ccc(C3(C(=O)O)CCNCC3)cc2)c1)OCc1ccccc1	> 99.5 µM
N[C@H]1CCc2ccc(NC(=O)c3cc(Cl)cc4[nH]ncc34)cc21	1.49 µM
Cc1ccncc1-c1cc(CN)cc([C@@H]2C[C@H]2c2cc(Cl)cc(NC(=O)OCc3ccccc3)c2)c1	21.1 µM
O=C(Nc1ccc2c(c1)CNCCC2)c1cc(Cl)cc2[nH]ncc12	0.376 µM
O=C(O)C1CCC2(CC1)CC(Cc1c[nH]c3ccc(Cl)cc13)C2 (stereo not drawn)	> 99.5 µM
Cc1cc(-c2ccc3[nH]c(C(=O)O)cc3c2)c(=O)n(Cc2ccccc2)c1	> 99.5 µM
O=C(O)c1ccc2nc(Cc3c[nH]c4ccc(Cl)cc34)cn2c1	> 99.5 µM
N#Cc1ccc2[nH]cc(Cc3ccc(-c4nnn[nH]4)cc3)c2c1	> 99.5 µM
Cn1ccc(-c2cc(CN)cc([C@@H]3C[C@H]3c3cc(Cl)cc(NC(=O)OCc4ccccc4)c3)c2)n1	8.05 µM
CC(C)(C)OC(=O)Cc1cc(CN)cc(NC(=O)c2cc(Cl)cc(NC(=O)OCc3ccccc3)c2)c1	> 99.5 µM
NCc1cc(C(F)(F)F)cc(-c2ccc3[nH]c(C(=O)O)cc3c2)n1	> 99.5 µM
O=C(c1cc(Cl)cc2[nH]ncc12)N1C[C@H]2CNC[C@H]2C1	> 99.5 µM
O=C(O)c1cc2cc(-c3cc(Cl)cn4ncnc34)ccc2[nH]1	> 99.5 µM
O=C(Nc1ccc2c(c1)COC2)c1cc(Cl)cc2[nH]ncc12	> 99.5 µM
O=C(Nc1ccc2c(c1)CN(CC(F)F)C2)c1cc(Cl)cc2[nH]ncc12	3.8 µM
NCc1ccc(NC(=O)c2cc(Cl)cc3[nH]ncc23)cc1	3.18 µM
NCc1cc(NC(=O)c2cc(Cl)cc(NC(=O)OCc3ccccc3)c2)cc(-c2ccc3c(c2)C[C@H](C(=O)O)CO3)c1	> 99.5 µM
O=C(O)c1cc2cc(-c3cccc([C@H]4CCOC4)n3)ccc2[nH]1	> 99.5 µM
NCc1cccc([C@@H]2[C@H](C(=O)O)[C@H]2c2cc(N)cc(Cl)c2)c1	> 99.5 µM
NCCc1cccc(NC(=O)c2cc(Cl)cc3[nH]ncc23)c1	0.632 µM

Structure (SMILES)	IC50
O=C(Nc1ccc2c(c1)[C@H]1CC[C@H]2N1)c1cc(Cl)cc2[nH]ncc12	5.65 µM
O=C(Nc1ccc2c(c1)CCNCC2)c1cc(Cl)cc2[nH]ncc12	0.37 µM
O=C(c1cc(Cl)cc2[nH]ncc12)N1CC[C@]2(CCNC2)C1	> 99.5 µM
COC(=O)c1ccc2[nH]cc(Cc3ccc(-c4nnn[nH]4)cc3)c2c1	> 99.5 µM
O=C1NCc2ccc(NC(=O)c3cc(Cl)cc4[nH]ncc34)cc21	> 99.5 µM
O=C(Nc1ccc2c(n1)CNC2)c1cc(Cl)cc2[nH]ncc12	0.608 µM
NCc1cc(-c2ccncc2)cc([C@@H]2C[C@H]2c2cc(Cl)cc(NC(=O)OCc3ccccc3)c2)c1	12.3 µM
Cc1ccc(NC(=O)c2cc(Cl)cc3[nH]ncc23)cc1CN	1.39 µM
O=C(O)c1ccc(NC(=O)c2cc(Cl)cc3[nH]ncc23)cc1	> 99.5 µM
N#C[C@H](Nc1cc(Cl)cc(C2CC2)c1)c1ccc(-c2nn[nH]n2)cc1	75.8 µM
O=C(O)Cc1cn2nc(-c3cc(Cl)cc(NC(=O)OCc4ccccc4)c3)ccc2n1	> 99.5 µM
O=C(Nc1cc(Cl)cc(-c2cc(C(=O)O)n(-c3ccc(F)cc3)n2)c1)OCc1ccccc1	32.4 µM
N[C@H]1CCCc2ccc(NC(=O)c3cc(Cl)cc4[nH]ncc34)cc21	2.97 µM
N[C@H]1Cc2ccc(NC(=O)c3cc(Cl)cc4[nH]ncc34)cc2C1	0.488 µM
CNCc1cccc(NC(=O)c2cc(Cl)cc3[nH]ncc23)c1	4.8 µM
CC(C)(C)c1[nH]c2ccc(F)cc2c1Cc1ccc(-c2nnn[nH]2)cc1	> 99.5 µM
O=C(O)Cn1nc2ccc(-c3cc(Cl)cc(NC(=O)OCc4ccccc4)c3)nn2c1=O	> 99.5 µM
CCNCc1ccc(NC(=O)c2cc(Cl)cc3[nH]ncc23)cc1	11.5 µM
Cc1ccc(Oc2ncccc2C#N)c(-c2ccc3[nH]c(C(=O)O)cc3c2)c1	> 99.5 µM
Cc1cc(C#N)cc2c(Cc3ccc(-c4nnn[nH]4)cc3)c[nH]c12	> 99.5 µM
COc1nnc(C(F)(F)F)cc1-c1ccc2[nH]c(C(=O)O)cc2c1	> 99.5 µM
COCCCN1Cc2ccc(NC(=O)c3cc(Cl)cc4[nH]ncc34)cc2C1	13.1 µM
O=Cc1ccc(N2CCC(C(=O)N3CCN(c4ccc([N+](=O)[O-])cc4C(F)(F)F)CC3)CC2)cc1	> 0.782 µM
CN1[C@@H]2CCC[C@H]1C[C@@H](NC(=O)C1CCN(c3ccc(C=O)cc3)CC1)C2	> 99.9 µM
CS(=O)(=O)c1ccc(N2CCN(C(=O)C3CCN(c4ccc(C=O)cc4)CC3)CC2)c([N+](=O)[O-])c1	> 0.782 µM
O=Cc1ccc(N2CCC(C(=O)Nc3ccc(Br)cc3O)CC2)cc1	67.6 µM
CC(=O)Nc1cccc(CNC(=O)C2CCN(c3ccc(C=O)cc3)CC2)c1	> 99.9 µM

More lines, now with the values ahead:

IC50	Structure (SMILES)
0.332 µM	COc1cc(Br)cc(C(=O)Nc2ccc3c(c2)CNC3)c1
6.43 µM	O=C1NCc2c1cccc2C(=O)Nc1ccc2c(c1)CNC2
> 99.5 µM	CCCN1C(=O)[C@](C#N)(Nc2cccc(-c3nn[nH]n3)c2)c2cc(Cl)ccc21
19.6 µM	O=C(Nc1ccc2c(c1)CNC2)c1cnnc2ccccc12
3.83 µM	CNC(=O)[C@H](Nc1ccc2c(c1)CNC2)c1cccc2[nH]ncc12
> 99.5 µM	O=C(Nc1ccc2c(c1)CNC2)c1ncnc2sccc12
24 µM	CCCN1C(=O)[C@](C#N)(Nc2ccc3c(c2)CNC3)c2ccccc21
0.404 µM and 1.27 µM	O=C1Cc2c(cccc2C(=O)Nc2ccc3c(c2)CNC3)N1
14.7 µM	O=C(Nc1ccc2c(c1)CNC2)c1cncc(-c2ccccc2)c1
> 99.5 µM	Clc1ccc2ncn(Cc3ccc4c(c3)CNC4)c2c1
6.63 µM	Cn1nc(C(=O)Nc2ccc3c(c2)CNC3)c2cc(Br)ccc21
0.075 µM and 0.05 µM	CNC(=O)[C@H](Nc1ccc2c(c1)CNC2)c1cc(Cl)cc2[nH]ncc12
18.7 µM	O=C(Nc1ccc2c(c1)CNC2)c1cc(=O)[nH]c2c(F)cccc12
12 µM	O=C(NCc1ccc2c(c1)CNC2)c1cc(Cl)cc2[nH]ncc12
0.055 µM and 0.049 µM	O=C(Nc1ccc2c(c1)CNC2)c1cc(Br)cc2[nH]ncc12
53.8 µM	CNC(=O)[C@]1(Nc2ccc3c(c2)CNC3)C(=O)Nc2c(OC)cc(Br)cc21
> 99.5 µM	O=C(Nc1ccc2c(c1)CNC2)c1ncnc2ccsc12
0.082 µM and 0.069 µM	CC(=O)Nc1cc(Br)cc(C(=O)Nc2ccc3c(c2)CNC3)c1
13.4 µM	O=C(Nc1ccc2c(c1)CNC2)c1cc(Br)cc2cccnc12
22.2 µM	O=C(Nc1ccc2c(c1)CNC2)c1ccc(OCC(F)(F)F)nc1
46.9 µM	Nc1nccc(C(=O)Nc2ccc3c(c2)CNC3)n1
> 99.5 µM	CCc1nc2ccc(Cl)cc2n1Cc1ccc2c(c1)CNC2
66.3 µM	O=C(Nc1ccc2c(c1)CNC2)c1cncc(N2CCOCC2)c1
0.533 µM	N#Cc1cc(C(=O)Nc2ccc3c(c2)CNC3)cc(C(F)(F)F)c1

Source: ChEMBL document CHEMBL5604062, “ASAP - ZIKV NS2B-NS3 protease fluorescence dose response” (2024)
